{"source": "patent US20250121076A1", "about": "“POLYPEPTIDE DRUG CONJUGATE HAVING NOVEL STRUCTURE AND APPLICATION THEREOF” (MEDSHINE DISCOVERY INC., priority 2021, published 2025)", "molecular_target": "T1, Human EphA2 (Homo sapiens, UniProt P29317)", "T1 construct": "purchased Sino Biological 13926-H08HD", "T1 sequence (P29317 24-534 limits assumed)": "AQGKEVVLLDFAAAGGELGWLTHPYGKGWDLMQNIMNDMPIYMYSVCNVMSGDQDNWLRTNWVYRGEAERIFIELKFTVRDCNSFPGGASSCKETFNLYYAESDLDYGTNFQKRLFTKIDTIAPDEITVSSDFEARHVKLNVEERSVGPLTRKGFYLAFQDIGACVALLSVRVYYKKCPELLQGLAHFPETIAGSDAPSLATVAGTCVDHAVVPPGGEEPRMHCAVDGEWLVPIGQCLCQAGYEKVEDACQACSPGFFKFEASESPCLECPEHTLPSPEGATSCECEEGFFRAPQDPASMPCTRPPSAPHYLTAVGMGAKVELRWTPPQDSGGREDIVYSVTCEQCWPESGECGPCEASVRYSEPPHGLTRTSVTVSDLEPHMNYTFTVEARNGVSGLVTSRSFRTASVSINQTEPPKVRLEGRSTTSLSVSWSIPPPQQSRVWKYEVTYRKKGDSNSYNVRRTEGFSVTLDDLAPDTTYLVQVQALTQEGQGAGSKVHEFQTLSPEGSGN", "assay": "Binding capacity test to EphA2 protein (SPR, Biacore 8K)", "method": "To detect the affinity of the compound to be tested to the target protein EphA2 using the SPR method.\n• Biacore 8K (GE Healthcare). • 96-well Plate (Cat #650101, greiner bio-one) • CM5 chip (Cat #BR-1005-30, GE Healthcare) • Amine Coupling Kit (Cat #BR-1000-50, GE Healthcare) EDC NHS 1 M ethanolamine. • 10 mM sodium acetate pH 4.5 (Cat #BR-1003-50, GE Healthcare) • DMSO (Cat #D4540, Sigma) • P20 (Cat #BR-1000-54, GE Healthcare). • PBS (Cat #BR-1006-72, GE Healthcare). • EphA2 (Cat #13926-H08HD, Sino Biological)\nIn this experiment, the amino coupling method was used. The target protein EphA2 was directly immobilized on the CM5 chip using Biacore 8K. The compound to be tested as an analyte was then diluted to a required concentration gradient with a buffer (10 mM PBS, pH 7.4, 137 mM NaCl, 2.7 mM KCl, 5% DMSO, and 0.05% P20) for multi-cycle kinetic detection, in which each cycle is formed by 180 seconds of sample injection and 180 seconds of dissociation, and then the next cycle was performed, to obtain kinetic analysis data on the affinity of the target protein EphA2 to the compound to be tested. The final data were subjected to Kinetics fitting analysis based on a 1:1 model using Biacore Insight Evaluation Software (V 2.0.15.12933).\n1) Preparation of the buffer: 10 mM PBS, pH 7.4, 137 mM NaCl, 2.7 mM KCl, 5% DMSO, and 0.05% P20.\n2) Activation of the CM5 chip: The CM5 chip was activated with 400 mM EDC and 100 mM NHS at a flow rate of 10 μL/min for 420 seconds.\n3) Coupling of the target protein: The target protein was diluted to 10 μg/mL with 10 mM sodium acetate (pH 4.5) and coupled at a flow rate of 10 μL/min for 284 s. The 1 #, 2 #, and 3 #channels on the chip were used in the experiment, and the coupling results were 1639.9RU, 1747.8RU, and 1702.2RU, respectively.\n4) Blocking of the CM5 chip: The CM5 chip was blocked with 1 M ethanolamine at a flow rate of 10 μL/min for 420 seconds.\n5) Analyte concentration: The compound to be tested was diluted with the buffer. The compound to be tested was diluted from 100 nM to 0.78 nM in a 2-fold gradient.\n6) Sample injection analysis: Each concentration of the working solution of the compound to be tested corresponded to one cycle, with a flow rate of 30 μL/min for binding for 180 seconds and dissociating for 180 seconds. The last cycle was a 5% DMSO solvent correction cycle. 7) All results were subjected to kinetics fitting analysis based on a 1:1 model.\nThe experimental data of five effective concentrations of the compounds of the present invention were selected for Kinetics fitting analysis based on a 1:1 model using Biacore Insight Evaluation Software (V 2.0.15.12933).", "note": "pKd: −log10 of the molar value. Structures can show the parent of a compound that is named as a salt. Starred links: 1 amine or outer side, 2 acyl side, 3 side chain; linkers in the order of their positions; H or OH if unused. Positions of bridges follow the written chain, without caps; N, C: chain ends. Non-standard residues stand in square brackets, D forms with d. Residues, ends and D or L forms follow the SMILES beside them. Chains are numbered I, II in the order given. *: point of attachment. TATA = O=C(CC[*:1])N1CN(C(=O)CC[*:2])CN(C(=O)CC[*:3])C1; Dolaproine = CO[C@@H]([C@@H]1CCCN1)[C@@H](C)C(=O)O; Dil = CC[C@H](C)[C@H](NC)[C@@H](CC(=O)O)OC; X2 = O=C(CCCC(=O)[*:2])NCCC(=O)[*:1]; PABC = O=C(OCc1ccc(N[*:1])cc1)[*:2]; X1 = C[C@@H](N*)[C@@H](O)c1ccccc1; Hyp = O=C(O)[C@@H]1C[C@@H](O)CN1; hArg = N=C(N)NCCCC[C@H](N)C(=O)O; Cit = NC(=O)NCCC[C@H](N)C(=O)O; Pen = CC(C)(S)[C@H](N)C(=O)O; NMeV = CN[C@H](C(=O)O)C(C)C; hCys = N[C@@H](CCS)C(=O)O; Sar = CNCC(=O)O", "data": [{"compound": "CC[C@H](C)[C@@H]([C@@H](CC(=O)N1CCC[C@H]1[C@H](OC)[C@@H](C)C(=O)N[C@H](C)[C@@H](O)c1ccccc1)OC)N(C)C(=O)[C@@H](NC(=O)[C@H](C(C)C)N(C)C(=O)OCc1ccc(NC(=O)[C@H](CCCNC(N)=O)NC(=O)[C@@H](NC(=O)CCCC(=O)NCCC(=O)N(C)CC(=O)N(C)CC(=O)N(C)CC(=O)N(C)CC(=O)N(C)CC(=O)N(C)CC(=O)N(C)CC(=O)N(C)CC(=O)N(C)CC(=O)N(C)CC(=O)N[C@H]2CCCCNC(=O)C[C@@H](C(=O)N[C@H]3CCSCCC(=O)N4CN5CN(C4)C(=O)CCSC[C@H](NC(=O)[C@H](CC(C)C)NC(=O)[C@@H]4CCCN4C(=O)[C@H](CC(N)=O)NC(=O)[C@H](C(C)C)NC(=O)[C@H](CC(C)C)NC(=O)[C@@H]4C[C@@H](O)CN4C3=O)C(=O)N[C@@H](CC(C)C)C(=O)N[C@@H](Cc3c[nH]cn3)C(=O)N3CCC[C@H]3C(=O)N[C@H](CC(=O)O)C(=O)N[C@@H](Cc3c[nH]c4ccccc34)C(=O)N[C@@H](CCCCNC(=N)N)C(=O)N[C@H](C(N)=O)CSCCC5=O)NC(=O)[C@H](CCCCNC(=N)N)NC2=O)C(C)C)cc1)C(C)C", "note": "[Acetate salt of PDC_6] (I: [Sar][Sar][Sar][Sar][Sar][Sar][Sar][Sar][Sar][Sar]K[hArg]D[hCys][Hyp]LVNPLCLHP[dD]W[hArg]C-NH2 / II: V[Cit][PABC][NMeV]V[Dil][Dolaproine]-X1; lactam I:11-I:13; linker I:14-I:21-I:28 via TATA; linker I:N-II:N via X2)", "values": [{"measurement": "pKd", "value": 8.25}]}, {"compound": "CC[C@H](C)[C@@H]([C@@H](CC(=O)N1CCC[C@H]1[C@H](OC)[C@@H](C)C(=O)N[C@H](C)[C@@H](O)c1ccccc1)OC)N(C)C(=O)[C@@H](NC(=O)[C@H](C(C)C)N(C)C(=O)OCc1ccc(NC(=O)[C@H](CCCNC(N)=O)NC(=O)[C@@H](NC(=O)CCCC(=O)NCCC(=O)N(C)CC(=O)N(C)CC(=O)N(C)CC(=O)N(C)CC(=O)N(C)CC(=O)N(C)CC(=O)N(C)CC(=O)N(C)CC(=O)N(C)CC(=O)N(C)CC(=O)N[C@H]2CCCCNC(=O)C[C@@H](C(=O)N[C@@H]3C(=O)N4C[C@H](O)C[C@H]4C(=O)N[C@@H](CC(C)C)C(=O)N[C@@H](C(C)C)C(=O)N[C@@H](CC(N)=O)C(=O)N4CCC[C@H]4C(=O)N[C@@H](CC(C)C)C(=O)N[C@H]4CSCCC(=O)N5CN(CN(C5)C(=O)CCSC3(C)C)C(=O)CCSC[C@@H](C(N)=O)NC(=O)[C@H](CCCCNC(=N)N)NC(=O)[C@H](Cc3c[nH]c5ccccc35)NC(=O)[C@@H](CC(=O)O)NC(=O)[C@@H]3CCCN3C(=O)[C@H](Cc3c[nH]cn3)NC(=O)[C@H](CC(C)C)NC4=O)NC(=O)[C@H](CCCCNC(=N)N)NC2=O)C(C)C)cc1)C(C)C", "note": "[Acetate salt of PDC_7] (I: [Sar][Sar][Sar][Sar][Sar][Sar][Sar][Sar][Sar][Sar]K[hArg]D[Pen][Hyp]LVNPLCLHP[dD]W[hArg]C-NH2 / II: V[Cit][PABC][NMeV]V[Dil][Dolaproine]-X1; lactam I:11-I:13; linker I:14-I:21-I:28 via TATA; linker I:N-II:N via X2)", "values": [{"measurement": "pKd", "value": 8.08}]}]}
